# Experimental data reported in publication PMC10504751, “Chalcone/1,3,4-Oxadiazole/Benzimidazole hybrids as novel anti-proliferative agents inducing apoptosis and inhibiting EGFR & BRAFV^600E” (BMC Chemistry, 2023).
# Tests used:
# Experiment in all cases: NCI one-dose SRB anti-proliferative screen
# Type in all cases: cell-based
# UACC-62 = settings: Homo sapiens; UACC-62, Melanoma; NCI one dose; read-out: Cell growth inhibition %
# How it was run: (§1)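 One concentration (10 µM) was used per compound. Proliferation was assessed using the sulforhodamine B colorimetric method across sixty lines grouped into nine cancer subpanels.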
# A498 = settings: Homo sapiens; A498, Renal cancer; NCI one dose; read-out: Cell growth inhibition %
# How it was run: as §1
# UO-31 = settings: Homo sapiens; UO-31, Renal cancer; NCI one dose; read-out: Cell growth inhibition %
# How it was run: as §1
# SR = settings: Homo sapiens; SR, Leukemia; NCI one dose; read-out: Cell growth inhibition %
# How it was run: as §1
# A549/ATCC = settings: Homo sapiens; A549/ATCC, Non-Small Cell Lung Cancer; NCI one dose; read-out: Cell growth inhibition %
# How it was run: as §1
# NCI/ADR-RES = settings: Homo sapiens; NCI/ADR-RES, Ovarian Cancer; NCI one dose; read-out: Cell growth inhibition %
# How it was run: as §1
# 786-0 = settings: Homo sapiens; 786-0, Renal cancer; NCI one dose; read-out: Cell growth inhibition %
# How it was run: as §1
# BT-549 = settings: Homo sapiens; BT-549, Breast cancer; NCI one dose; read-out: Cell growth inhibition %
# How it was run: as §1
# OVCAR-3 = settings: Homo sapiens; OVCAR-3, Ovarian Cancer; NCI one dose; read-out: Cell growth inhibition %
# How it was run: as §1
# HL-60(TB) = settings: Homo sapiens; HL-60(TB), Leukemia; NCI one dose; read-out: Cell growth inhibition %
# How it was run: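 Activity reflects a single-point exposure at 10 µM, with cell mass determined by a sulforhodamine B dye assay.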
# OVCAR-4 = settings: Homo sapiens; OVCAR-4, Ovarian Cancer; NCI one dose; read-out: Cell growth inhibition %
# How it was run: as §1
# MDA-MB-435 = settings: Homo sapiens; MDA-MB-435, Melanoma; NCI one dose; read-out: Cell growth inhibition %
# How it was run: as §1
# U251 = settings: Homo sapiens, U-251; U251, CNS Cancer; NCI one dose; read-out: Cell growth inhibition %
# How it was run: as §1
# NCI-H226 = settings: Homo sapiens; NCI-H226, Non-Small Cell Lung Cancer; NCI one dose; read-out: Cell growth inhibition %
# How it was run: as §1
# SN12C = settings: Homo sapiens, SN 12C, Renal cancer, NCI one dose, read-out: Cell growth inhibition %
# How it was run: as §1
# LOX IMVI = settings: Homo sapiens, Melanoma, NCI one dose, read-out: Cell growth inhibition %
# How it was run: as §1
# SK-MEL-2 = settings: Homo sapiens; SK-MEL-2, Melanoma; NCI one dose; read-out: Cell growth inhibition %
# How it was run: as §1
# OVCAR-5 = settings: Homo sapiens; OVCAR-5, Ovarian Cancer; NCI one dose; read-out: Cell growth inhibition %
# How it was run: as §1
# HCT-15 = settings: Homo sapiens; HCT-15, Colon cancer; NCI one dose; read-out: Cell growth inhibition %
# How it was run: as §1
# M14 = settings: Homo sapiens; M14, Melanoma; NCI one dose; read-out: Cell growth inhibition %
# How it was run: as §1
# NCI-H522 = settings: Homo sapiens; NCI-H522, Non-Small Cell Lung Cancer; NCI one dose; read-out: Cell growth inhibition %
# How it was run: as §1
# PC-3 = settings: Homo sapiens; PC-3, Prostate Cancer; NCI one dose; read-out: Cell growth inhibition %
# How it was run: as §1
# MDA-MB-231/ATCC = settings: Homo sapiens; MDA-MB-231/ATCC, Breast cancer; NCI one dose; read-out: Cell growth inhibition %
# How it was run: as §1
# OVCAR-8 = settings: Homo sapiens; OVCAR-8, Ovarian Cancer; NCI one dose; read-out: Cell growth inhibition %
# How it was run: as §1
# NCI-H322M = settings: Homo sapiens; NCI-H322M, Non-Small Cell Lung Cancer; NCI one dose; read-out: Cell growth inhibition %
# How it was run: as §1
# SK-MEL-28 = settings: Homo sapiens; SK-MEL-28, Melanoma; NCI one dose; read-out: Cell growth inhibition %
# How it was run: as §1
# MALME-3M = settings: Homo sapiens; MALME-3M, Melanoma; NCI one dose; read-out: Cell growth inhibition %
# How it was run: as §1
# NCI-H23 = settings: Homo sapiens; NCI-H23, Non-Small Cell Lung Cancer; NCI one dose; read-out: Cell growth inhibition %
# How it was run: as §1
# SF-539 = settings: Homo sapiens; SF-539, CNS Cancer; NCI one dose; read-out: Cell growth inhibition %
# How it was run: as §1
# TK-10 = settings: Homo sapiens; TK-10, Renal cancer; NCI one dose; read-out: Cell growth inhibition %
# How it was run: as §1
# ACHN = settings: Homo sapiens; ACHN, Renal cancer; NCI one dose; read-out: Cell growth inhibition %
# How it was run: as §1
SMILES,inhibition at 10 µM (UACC-62),inhibition at 10 µM (A498),inhibition at 10 µM (UO-31),inhibition at 10 µM (SR),inhibition at 10 µM (A549/ATCC),inhibition at 10 µM (NCI/ADR-RES),inhibition at 10 µM (786-0),inhibition at 10 µM (BT-549),inhibition at 10 µM (OVCAR-3),inhibition at 10 µM (HL-60(TB)),inhibition at 10 µM (OVCAR-4),inhibition at 10 µM (MDA-MB-435),inhibition at 10 µM (U251),inhibition at 10 µM (NCI-H226),inhibition at 10 µM (SN12C),inhibition at 10 µM (LOX IMVI),inhibition at 10 µM (SK-MEL-2),inhibition at 10 µM (OVCAR-5),inhibition at 10 µM (HCT-15),inhibition at 10 µM (NCI-H522),also measured
"COc1ccc(/C=C/C(=O)c2ccc(NC(=O)CSc3nnc(-c4ccc5[nH]c(-c6ccc(OC)cc6)nc5c4)o3)cc2)cc1 [Compound 7m, 2-{5-[2-(4-Methoxyphenyl)-1 H-benzo[d]imidazol-5-yl]-1,3,4-oxadiazol-2-ylthio}-N-{4-[(E)-3-(4-methoxyphenyl)acryloyl]phenyl}acetamide]",14.9%,0%,7.02%,40.5%,0%,0%,0%,14.3%,3.65%,21.9%,6.89%,7.11%,15.9%,16%,23.1%,81.5%,0%,0%,4.27%,22.8%,inhibition at 10 µM (M14): 0%; inhibition at 10 µM (PC-3): 14.7%; inhibition at 10 µM (MDA-MB-231/ATCC): 9.52%; inhibition at 10 µM (OVCAR-8): 23.4%; inhibition at 10 µM (NCI-H322M): 3.18%; inhibition at 10 µM (SK-MEL-28): 2%; inhibition at 10 µM (MALME-3M): 17.8%; inhibition at 10 µM (NCI-H23): 9.57%; inhibition at 10 µM (SF-539): 18%; inhibition at 10 µM (TK-10): 0%; inhibition at 10 µM (ACHN): 0%
"COc1ccc(/C=C/C(=O)c2ccc(NC(=O)CSc3nnc(-c4ccc5[nH]c(-c6ccccc6)nc5c4)o3)cc2)cc1OC [Compound 7d, 2-{5-[2-Phenyl-1 H-benzo[d]imidazol-5-yl]-1,3,4-oxadiazol-2-ylthio}-N-{4-[(E)-3-(3,4-dimethoxyphenyl)acryloyl]phenyl}acetamide]",5.31%,14.3%,11%,4.34%,0%,0%,9.58%,10.4%,2.49%,0%,0%,0%,5.02%,0%,0%,13.5%,0%,0%,0%,3.75%,inhibition at 10 µM (PC-3): 0%; inhibition at 10 µM (MDA-MB-231/ATCC): 0%; inhibition at 10 µM (OVCAR-8): 0%; inhibition at 10 µM (NCI-H322M): 0%; inhibition at 10 µM (SK-MEL-28): 0%; inhibition at 10 µM (MALME-3M): 2.37%; inhibition at 10 µM (NCI-H23): 0%; inhibition at 10 µM (SF-539): 0.34%; inhibition at 10 µM (TK-10): 0%; inhibition at 10 µM (ACHN): 0%
"O=C(CSc1nnc(-c2ccc3[nH]c(-c4ccccc4)nc3c2)o1)Nc1ccc(C(=O)/C=C/c2ccccc2)cc1 [Compound 7a, 2-{5-[2-Phenyl-1 H-benzo[d]imidazol-5-yl]-1,3,4-oxadiazol-2-ylthio}-N-{4-[(E)-3-phenylacryloyl]phenyl}acetamide]",2.91%,4.13%,12.6%,0%,0%,0%,0%,3.16%,0%,0%,0%,0%,1.83%,0%,2.04%,2.69%,0%,0%,0%,6.57%,inhibition at 10 µM (PC-3): 0%; inhibition at 10 µM (MDA-MB-231/ATCC): 0%; inhibition at 10 µM (OVCAR-8): 0.04%; inhibition at 10 µM (NCI-H322M): 0%; inhibition at 10 µM (SK-MEL-28): 0%; inhibition at 10 µM (MALME-3M): 5.5%; inhibition at 10 µM (NCI-H23): 0%; inhibition at 10 µM (SF-539): 3.15%; inhibition at 10 µM (TK-10): 0%; inhibition at 10 µM (ACHN): 0%
